Structures are written as SMILES.

Results on 4 compounds are retold here after patent US20190008864A1, “PHARMACEUTICAL COMPOSITION CONTAINING GPR119 LIGAND AS EFFECTIVE INGREDIENT FOR PREVENTING OR TREATING NON-ALCOHOLIC STEATOHEPATITIS” (PHARMEDIX.CO., LTD., priority 2014, published 2019).

Test [1] concerns SREBP-1c. Put plainly: SREBP-1C expression in HepG2 under high glucose/insulin with GPR119 ligand plus AMPK or PKA inhibitor. Type of test: cell-based, human. As to the method: (§1) Sodium dodecyl sulfate-polyacrylamide gel electrophoresis (SDS-PAGE) was carried out by means of a gel electrophoresis device (Mighty Small SE 250, Hoefer Scientific Instruments, San Francisco) according to a method by Laemmli (UK, Nature 227, 680-685, 1970). Each of cell lysate fractions was diluted with a buffer solution for sample dilution [63 mM Tris (pH. 6.8), 10% glycerol, 2% SDS, 0.0013% bromophenol blue, and 5% β-mercaptoethanol], and then electrophoresed on a 8% or 10% gel in an electrode buffer solution (1 l of the solution contained 15 g of Tris, 72 g of glycerin, and 5 g of SDS). […] Whether total protein contents in samples are the same is determined using anti-β-actin and anti-LaminA/C antibodies. Changes in protein expression amounts were determined by measuring the intensities of chemiluminescence signals on the blot by means of densitometry. […] Each lane was calculated using AlphaEase™ version 5.5 software and background intensity was removed from the calculated values. […]
An experiment therefor was performed as follows. […] Protein expression change was measured using the western blotting method of the method D.

For test [2], the system named is mouse liver tissue and hepatocyte line. Put plainly: Summary statement: mouse liver tissue and hepatocyte line treated with the two GPR119 ligands. Type of test: cell-based.
For test [3], the system named is fatty liver model induced by a high-fat diet. Put plainly: Fatty liver model induced by high-fat diet. It counts as in vivo, C57BL/6J mice. Particulars: animal models fed with a high-fat diet. An excerpt:
In the present invention, a high fat diet (HFD: 60% fat calories, Research diets, D12492, US) was used as an obesity induction diet.
Six-week-old male C57BL/6J mice (Central Lab. Animal Inc., Seoul, Korea) were acclimated to an experimental environment for one week while being fed solid food, and then randomly divided into a control group and an experimental group for a high-fat diet using a randomized block design. The animal groups were fed for 12 weeks, and thus, fatty liver animal models were established. Fatty liver development was determined according to blood biochemical and histochemical analysis methods. The mice were orally fed with the high-fat diet only for six weeks, and in combination with a GPR119 ligand (10 mg/kg) suspended in 40% PEG400 once a day for five days every week. Choline-deficient, amino acid-fixed high-fat diet steatohepatitis models were prepared by feeding six-week-old male C57BL/6J mice (Central Lab. Animal Inc., Seoul) with a diet containing 60 kcal fat and 0.1% methionine for four weeks. After terminating the experiment, experimental animals fasted for 12 hours or more. Subsequently, blood, liver, and adipose tissues in intestines (epididymal fat, kidney-surrounding fat) were collected from the animals that had been anesthetized with diethyl ether and then washed with a 0.1 M phosphate buffered saline (pH 7.4), followed by being weighed. Blood collected from abdominal aortas was centrifuged at 3000 rpm for 20 minutes using SST tubes to separate serum.
A total cholesterol concentration and a total glucose concentration in serum from each of the aforementioned experimental animals raised for 12 weeks were measured as follows. Each of the total cholesterol concentration and the total glucose concentration in serum was measured twice by means of a commercial measurement kit (Bio Clinical Systems). The amount of alanine aminotransferase (ALT) in blood used as a liver function index was measured by means of a commercial analysis kit (Bio Clinical Systems, Korea).
The collected liver tissues were fixed with a 10% neutral formalin solution and then subjected to a common fixation procedure and dehydration process, followed by embedding the same in paraffin. The embedded tissues were sectioned to a thickness of 4 μm and stained with H&E. The stained tissues were observed by means of an optical microscope.
A predetermined amount of each of the liver tissues was homogenized in liquid nitrogen and a cell lysis buffer in a mortar, and then a lysed tissue solution was transferred to a new tube, followed by vortexing. […] A middle layer of the centrifuged solution was collected and then subjected to protein quantification by the Bradford assay. […] Expression changes of FAS and SREBP-1c proteins were measured by western blotting. […]

For test [4], the system named is SCD-1 mRNA. Put plainly: SCD-1 mRNA expression after T0901317 treatment, HepG2 (real time PCR). It counts as cell-based, human. Particulars: 10 μM T0901317 alone. As for the experimental part: (§2) A 6-well plate was inoculated with HepG2 (ATCC, US), as a human hepatocyte line, and cultured until confluence in a DMEM medium containing 1% penicillin-streptomycin (Hyclone, US) and 10% fetal bovine serum (Hyclone, US) in a 5% CO2 incubator at 37° C. The medium containing 10% fetal bovine serum of the hepatocyte line grown to confluence was replaced by a medium not containing FBS. The cell line was additionally cultured for 18 hours and used as a sample for an experiment.
(§3) 1 ml of a TRIzol solution was added to each of cell samples to lyse the cells. Subsequently, centrifugation was carried out at 4° C. and 12,000×g for 10 minutes. […]
(§4) A supernatant was transferred to a new tube and then isopropanol was added thereto in the same amount as the supernatant. […] The concentration of an extracted RNA sample was measured at wavelengths of 260 nm and 280 nm by means of a UV/VIS spectrum analyzer (Nanodrop, Thermo, US) and cDNAs were synthesized therefrom using an RT kit. […]
(§5) A medium containing the GPR119 ligand (MBX-2982, GSK-1292263A) was added to a human hepatocyte line (HepG2) cultured as in the method C and, 30 minutes later, the cell line was treated with 10 μM T0901317 for nine hours. […] To investigate mRNA expression change in SCD-1 and FAS, RNAs were isolated and cDNAs were synthesized therefrom as in the method E. mRNA expression levels were measured using real time-PCR as in the method F.

Test [5] has as its system SREBP-1c protein. Put plainly: SREBP-1c expression after T0901317 treatment, HepG2 (western blot). Type of test: cell-based, human. Particulars: 10 μM T0901317 alone, nine hours, compared to no treatment. As to the method: as §2
as §1, with “1970).” for “1970). Each of cell lysate fractions was diluted with a buffer solution for sample dilution [63 mM Tris (pH. 6.8), 10% glycerol, 2% SDS, 0.0013% bromophenol blue, and 5% β-mercaptoethanol], and then electrophoresed on a 8% or 10% gel in an electrode buffer solution (1 l of the solution contained 15 g of Tris, 72 g of glycerin, and 5 g of SDS).”
(In general: In western blotting, separated proteins are transferred to a membrane and probed.)

In test [6] the test system is SREBP-1c protein. Briefly: SREBP-1c expression after T0901317 treatment, primary hepatocytes (western blot). Particulars: 10 μM T0901317 alone, nine hours, compared to no treatment. Type of test: cell-based, mouse.
Procedure: Liver cells were collected from male C57BL/6 mice (Central Lab. Animal Inc., Seoul) according to a method by Seglen et al. (Exp Cell Res., 82, pp 391-398, 1973). Each C57BL/6 mouse was anesthetized and then the abdomen thereof was incised. Subsequently, the hepatic portal vein was intubated and a gas mixture of 5% CO2 and 95% O2 was insufflated thereinto. A Ca^2+ and Mg^2+-free Hank's balanced salt solution at 37° C. was flowed into the tube to remove blood in the liver. Subsequently, a 0.1% collagenase type IV (Sigma, US) solution was flowed thereinto. The liver tissue was removed from the body, and then prepared into a hepatocyte suspension. The prepared hepatocyte suspension was centrifuged at 50×g for two minutes. […]
Sodium dodecyl sulfate-polyacrylamide gel electrophoresis (SDS-PAGE) was carried out by means of a gel electrophoresis device (Mighty Small SE 250, Hoefer Scientific Instruments, San Francisco) according to a method by Laemmli (UK, Nature 227, 680-685, 1970). […] Whether total protein contents in samples are the same is determined using anti-β-actin and anti-LaminA/C antibodies. Changes in protein expression amounts were determined by measuring the intensities of chemiluminescence signals on the blot by means of densitometry. […] Each lane was calculated using AlphaEase™ version 5.5 software and background intensity was removed from the calculated values. […]
Test [7] has as its system FAS mRNA. Briefly: FAS mRNA expression after T0901317 treatment, HepG2 (real time PCR). Particulars: 10 μM T0901317 alone. Type of test: cell-based, human. As for the experimental part:
as §2, §3, §4, §5
Background: Quantitative PCR measures a nucleic acid by following its amplification.

With `c1cc(-c2cnn3cc(-c4ccc(OCCN5CCCCC5)cc4)cnc23)ccn1` [Compound C], in test [1] (3 μM MBX2982 plus Compound C), the “SREBP-1C expression inhibition due to MBX2982 upon AMPK inhibitor treatment” value was “recovered”.
Regarding `CC(C)c1noc(N2CCC(COc3ccc(-c4ccc(S(C)(=O)=O)cc4)nc3)CC2)n1` [GSK1292263, 3-isopropyl-5-(4-(((6-(4-(methylsulfonyl)phenyl)pyridin-3-yl)oxy)methyl)piperidin-1-yl)-1,2,4-oxadiazole], in test [2], the “activity of SREBP-1c” value is “inhibited”, the “expression of GPR119” value is “increased”, the “expression of acetyl CoA carboxylase (ACC)” value is on record as “inhibited” and the “expression of fatty acid synthase (FAS)” value is “inhibited”. For the same compound, the “expression of stearoyl-CoA desaturase (SCD)” value in test [2] was “inhibited”. Besides, in test [3], the fatty liver development result was “completely inhibited”.
As to `O=S(=O)(NCCNC/C=C/c1ccc(Br)cc1)c1cccc2cnccc12` [H-89], the “function of the GPR119 ligand affecting SREBP-1C upon PKA inhibitor treatment” value in test [1] (3 μM GPR119 ligand plus H-89) is listed as “not affected”.
Consider `O=S(=O)(c1ccccc1)N(CC(F)(F)F)c1ccc(C(O)(C(F)(F)F)C(F)(F)F)cc1` [T0901317, N-(2,2,2-Trifluoroethyl)-N-[4-[2,2,2-trifluoro-1-hydroxy-1-(trifluoromethyl)ethyl]phenyl]benzenesulfonamide], for which the “mRNA expression level of SCD-1” value in test [4] is recorded as “increased”. Besides, the “expression level of SREBP-1c” value in test [5] and in test [6] was “greatly increases” in each case. For the same compound, in test [7], the “mRNA expression level of FAS” value was “increased”.
